In patent publication US20120128745A1, “BENZYLIDENE MALONATES” (BASF SE, priority 2009, published 2012):

What was measured:
[1] = stabilization (photostability) of Butyl Methoxydibenzoylmethane in O/W emulsion film under solar simulator, HPLC; type: physicochemical; details: 20 μm film on quartz plate, solar simulator 2 h (10 MED)
Method: Testing of stabilization of Butyl Methoxydibenzoylmethane (BMDBM, Parsol 1789):
The photostability of Butyl Methoxydibenzoylmethane is determined by spreading the emulsion as a 20 μm thick film on a quartz plate. The film is irradiated using a solar simulator for 2 h (10 MED). After irradiation, the quartz plate is plunged into 5 ml of tetrahydrofurane. The amount of UV-A filter Butyl Methoxydibenzoylmethane is then determined using high performance liquid chromatography. The residual Butyl Methoxydibenzoylmethane is determined to be 47%.
The photostability of Butyl Methoxydibenzoylmethane in the comparative formulation C is determined as described above for formulation B. The residual Butyl Methoxydibenzoylmethane is determined to be 4%.

[2] = photostability of 4-Methoxybenzylidene-di-tert-butyl-malonate in O/W emulsion film under solar simulator, HPLC; type: physicochemical; details: formulation A, solar simulator up to 10 h (50 MED)
Method: The photostability of Butyl 4-Methoxybenzylidene-di-tert-butyl-malonate is determined by spreading the emulsion as a 20 μm thick film on four quartz plates. The plates are irradiated using a solar simulator for 1 h (5 MED), 2 h (10 MED), 4 h (20 MED) and 10 h (50 MED). After the indicated irradiation times one of the quartz plate is plunged into 5 ml of tetrahydrofurane. The amount of UV-B filter 4-Methoxybenzylidene-di-tert-butyl-malonate is then determined using high performance liquid chromatography. The residual 4-Methoxybenzylidene-di-tert-butyl-malonate is determined to be 100% (±1%) in all cases.

| residual Butyl Methoxydibenzoylmethane ([1]; comparative formulation C (without benzylidene malonate)) | residual Butyl Methoxydibenzoylmethane ([1]; formulation B (with 4-Methoxybenzylidene-di-tert-butyl-malonate)) | photostability in an O/W sunscreen formulation [2] | Structure (SMILES) |
| --- | --- | --- | --- |
| 4% | 47% |  | COc1ccc(C(=O)CC(=O)c2ccc(C(C)(C)C)cc2)cc1 [Butyl Methoxydibenzoylmethane, 1,3-Propanedione, 1-[4-(1,1-dimethylethyl)phenyl]-3-(4-methoxyphenyl)-] |
|  |  | complete photostability | COc1ccc(C=C(C(=O)OC(C)(C)C)C(=O)OC(C)(C)C)cc1 [Example 18, 4-Methoxybenzylidene-di-tert-butyl-malonate] |
